# Columns and labels:
# Experiment in all cases: cells
# Type in all cases: functional, cell-based
# Details in all cases: Homo sapiens
# D-247MG = test system: D-247MG
# Description: SANGER: Inhibition of human D-247MG cell growth in a cell viability assay.
# NCI-H2052 = test system: NCI-H2052;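 further: growth inhibition of NCI-H2052 cells, read out with a cell viability assay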
# Description: SANGER: Inhibition of human NCI-H2052 cell growth in a cell viability assay.
# RCM-1 = test system: RCM-1;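 further: growth inhibition of the RCM-1 line, determined with a cell viability readout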
# Description: SANGER: Inhibition of human RCM-1 cell growth in a cell viability assay.
# CAL-51 = test system: CAL-51;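 further: human CAL-51 cell line, growth inhibition read out via a cell viability assay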
# Description: SANGER: Inhibition of human CAL-51 cell growth in a cell viability assay.
# P12-Ichikawa = test system: P12-Ichikawa
# T-24 = test system: T-24;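 further: growth inhibition of T-24 cells, read out with a cell viability assay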
# Description: SANGER: Inhibition of human T-24 cell growth in a cell viability assay.
# HT-1376 = test system: HT-1376
# Description: SANGER: Inhibition of human HT-1376 cell growth in a cell viability assay.
# MG-63 = test system: MG-63;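 further: growth inhibition of human MG-63 cells, read out with a cell viability assay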
# Description: SANGER: Inhibition of human MG-63 cell growth in a cell viability assay.
# TYK-nu = test system: TYK-nu;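 further: growth inhibition of human TYK-nu cells, read out by a cell viability assay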
# Description: SANGER: Inhibition of human TYK-nu cell growth in a cell viability assay.
# Ca-Ski = test system: Ca-Ski;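 further: cell viability assay measuring inhibition of Ca-Ski cell growth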
# Description: SANGER: Inhibition of human Ca-Ski cell growth in a cell viability assay.
# NCI-H1703 = test system: NCI-H1703;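 further: growth inhibition of NCI-H1703 cells, read out via a cell viability assay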
# Description: SANGER: Inhibition of human NCI-H1703 cell growth in a cell viability assay.
# NCI-H2030 = test system: NCI-H2030;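 further: growth inhibition of human NCI-H2030 cells, read out by a cell viability assay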
# Description: SANGER: Inhibition of human NCI-H2030 cell growth in a cell viability assay.
# HT-29 = test system: HT-29;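 further: growth inhibition of human HT-29 cells, read out by a cell viability assay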
# Description: SANGER: Inhibition of human HT-29 cell growth in a cell viability assay.
# NCI-H1755 = test system: NCI-H1755;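 further: cell viability readout used to measure growth inhibition of NCI-H1755 cells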
# Description: SANGER: Inhibition of human NCI-H1755 cell growth in a cell viability assay.
# HuP-T3 = test system: HuP-T3;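 further: HuP-T3 cell growth inhibition, read out with a cell viability assay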
# Description: SANGER: Inhibition of human HuP-T3 cell growth in a cell viability assay.
# HCC1937 = test system: HCC1937;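 further: growth inhibition measured with a cell viability read-out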
# Description: SANGER: Inhibition of human HCC1937 cell growth in a cell viability assay.
# SCC-25 = test system: SCC-25;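 further: growth inhibition of SCC-25 cells, measured with a cell viability assay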
# Description: SANGER: Inhibition of human SCC-25 cell growth in a cell viability assay.
# KYSE-520 cell line = test system: KYSE-520 cell line;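 further: growth inhibition of human KYSE-520 cells, read out with a viability assay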
# Description: SANGER: Inhibition of human KYSE-520 cell growth in a cell viability assay.
# NCI-H2342 = test system: NCI-H2342;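 further: growth inhibition of the cancer cell line, determined with a cell viability assay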
# Description: SANGER: Inhibition of human NCI-H2342 cell growth in a cell viability assay.
# NB14 = test system: NB14;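 further: growth inhibition of NB14 cells measured with a cell viability assay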
# Description: SANGER: Inhibition of human NB14 cell growth in a cell viability assay.
# 647-V = test system: 647-V;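 further: growth inhibition of 647-V cells, read out with a cell viability assay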
# Description: SANGER: Inhibition of human 647-V cell growth in a cell viability assay.
# PC-14 = test system: PC-14;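 further: cell viability assay measuring inhibition of PC-14 cell growth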
# Description: SANGER: Inhibition of human PC-14 cell growth in a cell viability assay.
# D-336MG = test system: D-336MG
# Description: SANGER: Inhibition of human D-336MG cell growth in a cell viability assay.
# C-33-A = test system: C-33-A;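 further: cell viability assay measuring growth inhibition of C-33-A cells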
# Description: SANGER: Inhibition of human C-33-A cell growth in a cell viability assay.
# SK-MEL-30 = test system: SK-MEL-30;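 further: growth inhibition of SK-MEL-30 cells, determined with a cell viability assay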
# Description: SANGER: Inhibition of human SK-MEL-30 cell growth in a cell viability assay.
# SN12C = test system: SN12C;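 further: growth inhibition of human SN12C cells, measured by a cell viability assay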
# Description: SANGER: Inhibition of human SN12C cell growth in a cell viability assay.
# NB17 = test system: NB17;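 further: growth inhibition of NB17 cells, read out with a cell viability assay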
# Description: SANGER: Inhibition of human NB17 cell growth in a cell viability assay.
# IGR-1 = test system: IGR-1;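 further: growth inhibition of human IGR-1 cells, read out with a cell viability assay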
# Description: SANGER: Inhibition of human IGR-1 cell growth in a cell viability assay.
# PA-1 = test system: PA-1;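 further: IC50 for suppression of PA-1 cell proliferation, determined with a cell viability read-out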
# Description: SANGER: Inhibition of human PA-1 cell growth in a cell viability assay.
# PANC-03-27 = test system: PANC-03-27
# Description: SANGER: Inhibition of human PANC-03-27 cell growth in a cell viability assay.
# EFO-27 = test system: EFO-27;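 further: growth inhibition of EFO-27 cells, read out with a cell viability assay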
# Description: SANGER: Inhibition of human EFO-27 cell growth in a cell viability assay.
# NCI-H2009 = test system: NCI-H2009;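 further: cell viability assay measuring inhibition of NCI-H2009 cell growth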
# Description: SANGER: Inhibition of human NCI-H2009 cell growth in a cell viability assay.
# LU-135 = test system: LU-135
# Description: SANGER: Inhibition of human LU-135 cell growth in a cell viability assay.
# KNS-62 = test system: KNS-62;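 further: inhibition of cell growth, read out with a cell viability assay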
# Description: SANGER: Inhibition of human KNS-62 cell growth in a cell viability assay.
# NCI-H630 = test system: NCI-H630;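 further: growth inhibition of NCI-H630 cells, read out with a cell viability assay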
# Description: SANGER: Inhibition of human NCI-H630 cell growth in a cell viability assay.
# CAL-62 = test system: CAL-62;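 further: growth inhibition of CAL-62 cells, read out with a cell viability assay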
# Description: SANGER: Inhibition of human CAL-62 cell growth in a cell viability assay.
# UMUC3 = test system: UMUC3;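 further: growth inhibition of human UM-UC-3 cells, read out with a cell viability assay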
# Description: SANGER: Inhibition of human UM-UC-3 cell growth in a cell viability assay.
# NCI-H292 = test system: NCI-H292;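 further: growth inhibition of NCI-H292 cells, read out with a cell viability assay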
# Description: SANGER: Inhibition of human NCI-H292 cell growth in a cell viability assay.
# BXPC-3 = test system: BXPC-3;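 further: growth inhibition of human BxPC-3 cells, read out by a cell viability assay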
# Description: SANGER: Inhibition of human BxPC-3 cell growth in a cell viability assay.
# KYSE-510 = test system: KYSE-510;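 further: cell viability readout used to measure how strongly growth of the cell line is suppressed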
# Description: SANGER: Inhibition of human KYSE-510 cell growth in a cell viability assay.
# 23132-87 = test system: 23132-87
# Description: SANGER: Inhibition of human 23132-87 cell growth in a cell viability assay.
# A2058 = test system: A2058;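 further: reduction of A2058 cell growth, read out with a viability assay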
# Description: SANGER: Inhibition of human A2058 cell growth in a cell viability assay.
# A673 = test system: A673;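 further: growth inhibition of human A673 cells, read out through a cell viability assay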
# Description: SANGER: Inhibition of human A673 cell growth in a cell viability assay.
# RVH-421 = test system: RVH-421
# Description: SANGER: Inhibition of human RVH-421 cell growth in a cell viability assay.
# RPMI-2650 = test system: RPMI-2650
# Description: SANGER: Inhibition of human RPMI-2650 cell growth in a cell viability assay.
smiles,measurement,setting,value
COc1cc(Nc2c(C#N)cnc3cc(OCCCN4CCN(C)CC4)c(OC)cc23)c(Cl)cc1Cl [BOSUTINIB],IC50,D-247MG,> 2 µM
same,IC50,NCI-H2052,> 2 µM
same,IC50,RCM-1,> 2 µM
same,IC50,CAL-51,> 2 µM
same,IC50,P12-Ichikawa,> 2 µM
same,IC50,T-24,> 2 µM
same,IC50,HT-1376,1.64 µM
same,IC50,MG-63,> 2 µM
same,IC50,TYK-nu,> 2 µM
same,IC50,Ca-Ski,> 2 µM
same,IC50,NCI-H1703,> 2 µM
same,IC50,NCI-H2030,> 2 µM
same,IC50,HT-29,> 2 µM
same,IC50,NCI-H1755,> 2 µM
same,IC50,HuP-T3,> 2 µM
same,IC50,HCC1937,> 2 µM
same,IC50,SCC-25,> 2 µM
same,IC50,KYSE-520 cell line,> 2 µM
same,IC50,NCI-H2342,> 2 µM
same,IC50,NB14,> 2 µM
same,IC50,647-V,> 2 µM
same,IC50,PC-14,1.29 µM
same,IC50,D-336MG,> 2 µM
same,IC50,C-33-A,> 2 µM
same,IC50,SK-MEL-30,> 2 µM
same,IC50,SN12C,> 2 µM
same,IC50,NB17,> 2 µM
same,IC50,IGR-1,> 2 µM
same,IC50,PA-1,> 2 µM
same,IC50,PANC-03-27,> 2 µM
same,IC50,EFO-27,1.69 µM
same,IC50,NCI-H2009,> 2 µM
same,IC50,LU-135,> 2 µM
same,IC50,KNS-62,> 2 µM
same,IC50,NCI-H630,> 2 µM
same,IC50,CAL-62,> 2 µM
same,IC50,UMUC3,> 2 µM
same,IC50,NCI-H292,0.441 µM
same,IC50,BXPC-3,> 2 µM
same,IC50,KYSE-510,> 2 µM
same,IC50,23132-87,> 2 µM
same,IC50,A2058,> 2 µM
same,IC50,A673,> 2 µM
same,IC50,RVH-421,> 2 µM
same,IC50,RPMI-2650,> 2 µM
C[C@]12O[C@H](C[C@]1(O)CO)n1c3ccccc3c3c4c(c5c6ccccc6n2c5c31)CNC4=O [LESTAURTINIB],IC50,D-247MG,0.528 µM
same,IC50,NCI-H2052,0.488 µM
same,IC50,RCM-1,1.59 µM
same,IC50,CAL-51,0.278 µM
same,IC50,P12-Ichikawa,0.0262 µM
same,IC50,T-24,> 2 µM
same,IC50,HT-1376,> 2 µM
same,IC50,MG-63,0.445 µM
same,IC50,TYK-nu,0.185 µM
same,IC50,Ca-Ski,> 2 µM
same,IC50,NCI-H1703,0.345 µM
same,IC50,NCI-H2030,1.32 µM
same,IC50,HT-29,0.666 µM
same,IC50,NCI-H1755,0.185 µM
same,IC50,HuP-T3,0.966 µM
same,IC50,HCC1937,> 2 µM
same,IC50,SCC-25,0.758 µM
same,IC50,KYSE-520 cell line,1.93 µM
same,IC50,NCI-H2342,> 2 µM
same,IC50,NB14,0.0196 µM
same,IC50,647-V,1 µM
same,IC50,PC-14,0.449 µM
same,IC50,D-336MG,0.193 µM
same,IC50,C-33-A,> 2 µM
same,IC50,SK-MEL-30,0.512 µM
same,IC50,SN12C,0.398 µM
same,IC50,NB17,0.382 µM
same,IC50,IGR-1,1.49 µM
same,IC50,PA-1,0.14 µM
same,IC50,PANC-03-27,0.342 µM
same,IC50,EFO-27,1.03 µM
same,IC50,NCI-H2009,1.23 µM
same,IC50,LU-135,> 2 µM
same,IC50,KNS-62,> 2 µM
same,IC50,NCI-H630,> 2 µM
same,IC50,CAL-62,0.254 µM
same,IC50,UMUC3,1.15 µM
same,IC50,NCI-H292,0.0914 µM
same,IC50,BXPC-3,> 2 µM
same,IC50,KYSE-510,> 2 µM
same,IC50,23132-87,0.838 µM
same,IC50,A2058,0.245 µM
same,IC50,A673,0.718 µM
same,IC50,RVH-421,0.244 µM
same,IC50,RPMI-2650,1.19 µM
C[C@]1(c2nc3c(C(N)=O)cccc3[nH]2)CCCN1 [VELIPARIB],IC50,D-247MG,> 5 µM
same,IC50,NCI-H2052,> 5 µM
same,IC50,RCM-1,> 5 µM
same,IC50,CAL-51,> 5 µM
same,IC50,P12-Ichikawa,> 5 µM
same,IC50,T-24,> 5 µM
same,IC50,HT-1376,> 5 µM
same,IC50,MG-63,> 5 µM
same,IC50,TYK-nu,> 5 µM
same,IC50,Ca-Ski,> 5 µM
same,IC50,NCI-H1703,> 5 µM
same,IC50,NCI-H2030,> 5 µM
same,IC50,HT-29,> 5 µM
same,IC50,NCI-H1755,> 5 µM
same,IC50,HuP-T3,> 5 µM
same,IC50,HCC1937,> 5 µM
same,IC50,SCC-25,> 5 µM
same,IC50,KYSE-520 cell line,> 5 µM
same,IC50,NCI-H2342,> 5 µM
same,IC50,NB14,> 5 µM
same,IC50,647-V,> 5 µM
same,IC50,PC-14,> 5 µM
same,IC50,D-336MG,> 5 µM
same,IC50,C-33-A,> 5 µM
same,IC50,SK-MEL-30,> 5 µM
same,IC50,SN12C,> 5 µM
same,IC50,NB17,> 5 µM
same,IC50,IGR-1,> 5 µM
same,IC50,PA-1,> 5 µM
same,IC50,PANC-03-27,> 5 µM
same,IC50,EFO-27,> 5 µM
same,IC50,NCI-H2009,> 5 µM
same,IC50,LU-135,> 5 µM
same,IC50,KNS-62,> 5 µM
same,IC50,NCI-H630,> 5 µM
same,IC50,CAL-62,> 5 µM
same,IC50,UMUC3,> 5 µM
same,IC50,NCI-H292,> 5 µM
same,IC50,BXPC-3,> 5 µM
same,IC50,KYSE-510,> 5 µM
same,IC50,23132-87,> 5 µM
same,IC50,A2058,> 5 µM
same,IC50,A673,> 5 µM
same,IC50,RVH-421,> 5 µM
same,IC50,RPMI-2650,> 5 µM
CC[C@]1(O)C[C@@H]2CN(CCc3c([nH]c4ccccc34)[C@@](C(=O)OC)(c3cc4c(cc3OC)N(C)[C@H]3[C@@](O)(C(=O)OC)[C@H](OC(C)=O)[C@]5(CC)C=CCN6CC[C@]43[C@@H]65)C2)C1 [VINBLASTINE],IC50,D-247MG,0.00698 µM
same,IC50,NCI-H2052,0.0246 µM
same,IC50,RCM-1,> 0.1 µM
same,IC50,CAL-51,0.0164 µM
same,IC50,P12-Ichikawa,0.0017 µM
same,IC50,T-24,0.0051 µM
same,IC50,HT-1376,0.0604 µM
same,IC50,MG-63,0.0142 µM
same,IC50,TYK-nu,0.0119 µM
same,IC50,Ca-Ski,0.00469 µM
same,IC50,NCI-H1703,0.00143 µM
same,IC50,NCI-H2030,0.0277 µM
same,IC50,HT-29,0.0459 µM
same,IC50,NCI-H1755,0.0194 µM
same,IC50,HuP-T3,0.018 µM
same,IC50,HCC1937,> 0.1 µM
same,IC50,SCC-25,0.0157 µM
same,IC50,KYSE-520 cell line,0.0476 µM
same,IC50,NCI-H2342,> 0.1 µM
same,IC50,NB14,0.00495 µM
same,IC50,647-V,0.023 µM
same,IC50,PC-14,0.00353 µM
same,IC50,D-336MG,0.00725 µM
same,IC50,C-33-A,0.0127 µM
same,IC50,SK-MEL-30,> 0.1 µM
same,IC50,SN12C,0.0161 µM
same,IC50,NB17,0.0218 µM
same,IC50,IGR-1,0.00208 µM
same,IC50,PA-1,0.00809 µM
same,IC50,PANC-03-27,0.00547 µM
same,IC50,EFO-27,0.00745 µM
same,IC50,NCI-H2009,0.0534 µM
same,IC50,LU-135,0.0356 µM
same,IC50,KNS-62,0.0058 µM
same,IC50,NCI-H630,> 0.1 µM
same,IC50,CAL-62,0.0101 µM
same,IC50,UMUC3,0.00511 µM
same,IC50,NCI-H292,0.00303 µM
same,IC50,BXPC-3,0.00801 µM
same,IC50,KYSE-510,0.00587 µM
same,IC50,23132-87,0.0206 µM
same,IC50,A2058,0.00122 µM
same,IC50,A673,0.00688 µM
same,IC50,RVH-421,0.00725 µM
same,IC50,RPMI-2650,0.0266 µM
